Experimental data as given in US7128910B2, “Moraxella catarrahalis outer membrane protein-106 polypeptide, gene sequences and uses thereof” (priority 1996, dated 2006).

Test system: M. catarrhalis ATCC 49143
Test: Proteolytic digestion of intact cells followed by hemagglutination test
Type: cell-based, Moraxella catarrhalis
Details: intact cells digested 1 hour at room temperature
Description: All proteases were obtained from Sigma Chemicals (St. Louis, Mo.). Immediately following the protease treatment, cells were washed once in PBS and resuspended in 1 ml of PBS and the hemagglutinating activity was tested. Additionally, protease-treated bacterial cells were extracted with octyl glucoside so the outer membrane proteins could be resolved to identify specific proteins that may have been digested by the proteases.

Substance	Effect of protease treatment on hemagglutination activity
trypsin	partially destroyed hemagglutination activity
chymotrypsin	destroyed the hemagglutination activity
proteinase V8: Protease from Sigma Chemicals	did not affect hemagglutination activity
